Experimental data as given in article PMC4881748 (Journal of the American Chemical Society, 2016).

Key:
[1] = target: BoNT/A LC (Clostridium botulinum, UniProt P0DPI0); format: biochemical, C. botulinum
[2] = tested on: BoNT/A; settings: cited from earlier work
[3] = tested on: BoNT/A SNAP-25 cleavage in hiPSC-derived neurons; format: cell-based, human
[4] = tested on: BoNT/A SNAP-25 cleavage in hiPSC-derived neurons; format: cell-based, human; remark: listed apart in the source

Chain of BoNT/A LC (P0DPI0 2-448 limits assumed): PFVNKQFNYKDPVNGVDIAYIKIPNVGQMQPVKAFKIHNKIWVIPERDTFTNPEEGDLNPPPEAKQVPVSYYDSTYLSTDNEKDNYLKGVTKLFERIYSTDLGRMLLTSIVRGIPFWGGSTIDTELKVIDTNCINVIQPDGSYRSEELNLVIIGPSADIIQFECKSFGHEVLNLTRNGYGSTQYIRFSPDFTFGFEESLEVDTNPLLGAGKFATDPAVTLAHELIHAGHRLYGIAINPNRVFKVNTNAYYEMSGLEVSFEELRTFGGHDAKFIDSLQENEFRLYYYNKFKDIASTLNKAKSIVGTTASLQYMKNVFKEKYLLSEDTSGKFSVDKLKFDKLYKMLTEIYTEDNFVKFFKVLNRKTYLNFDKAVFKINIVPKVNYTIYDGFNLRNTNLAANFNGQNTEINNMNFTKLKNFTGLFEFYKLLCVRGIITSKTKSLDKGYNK

## O=C1CCC(=O)N1O [N-hydroxysuccinimide (NHS), N-hydroxysuccinimide]
[1]
  Inhibition in the LC enzyme assay: did not demonstrate any inhibition

## CO/C1=C\C(C)=C\[C@@H](C)[C@@H](O)[C@@H](C)C/C(C)=C/C=C/[C@H](OC)[C@@H]([C@@H](C)[C@@H](O)[C@H](C)[C@@]2(O)C[C@@H](O)[C@H](C)[C@@H](C(C)C)O2)OC1=O [bafilomycin A1]
[2]
  Activity when added 0.5 h after toxin exposure: reduced activity
  Activity when added simultaneously or immediately after BoNT/A: presented activity
[3]
  Inhibition of SNAP-25 cleavage with delayed inhibitor addition: initially effective

## O=C(O)CCC(=O)NO [4-(hydroxyamino)-4-oxobutanoic acid]
[1]
  Inhibition in the LC enzyme assay: did not demonstrate any inhibition

## N-acetyl-N-(benzyloxy)acetamide [Compound 10]
[4]
  EC50, SNAP-25 protection in cellular assay: Inactive

## CC(=O)O[C@@H]1C[C@H](O)[C@@]23CO[C@@H](O)[C@]1(C)[C@@H]2C[C@@H](O)[C@]1(C)[C@@H]3C(=O)[C@H](OC(C)=O)[C@@]2(C)[C@H](c3ccoc3)C[C@H]3O[C@]321 [toosendanin]
[3]
  Inhibition of SNAP-25 cleavage with delayed inhibitor addition: initially effective

## O-benzyl N-hydroxysuccinimide [Compound 7]
[4]
  EC50, SNAP-25 protection in cellular assay: Inactive
